Experimental data from patent US20250122160A1, “PROTEIN TYROSINE PHOSPHATASE INHIBITORS AND METHODS OF USE THEREOF” (Calico Life Sciences LLC, priority 0001, published 2025).

Key:
[1] = biological target: T1, His tagged full-length PTPN1 protein (Homo sapiens, UniProt P18031); assay: Mobility shift assay (MSA) to determine potency of PTPN1 inhibitors; format: biochemical; conditions: 0.5 nM enzyme, 2 μM substrate
T1 construct: made in house
T1 sequence (P18031 with tags, fused parts or gaps): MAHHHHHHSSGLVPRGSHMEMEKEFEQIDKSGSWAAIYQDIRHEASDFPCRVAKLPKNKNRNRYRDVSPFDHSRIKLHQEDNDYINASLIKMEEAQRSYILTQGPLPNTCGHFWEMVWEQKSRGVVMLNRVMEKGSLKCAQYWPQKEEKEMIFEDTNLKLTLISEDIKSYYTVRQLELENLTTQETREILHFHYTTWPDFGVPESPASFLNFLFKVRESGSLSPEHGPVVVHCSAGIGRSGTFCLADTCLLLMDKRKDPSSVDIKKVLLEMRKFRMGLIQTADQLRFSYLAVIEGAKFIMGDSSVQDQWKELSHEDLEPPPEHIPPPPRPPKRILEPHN
In short: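 Readout is microfluidic mobility shift (ex 488/em 530 nm) of a 2 μM OG488-labelled pTyr insulin-receptor peptide after a 10 min room-temperature reaction, following 10 min enzyme–compound preincubation. Enzyme: 0.5 nM full-length His-tagged PTPN1 in HEPES pH 7.5 buffer. IC50 fitted from % inhibition at 12 concentrations (1:3 steps).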

[2] = biological target: T2, His tagged PTPN2 (TC45) protein (Homo sapiens, UniProt P17706); assay: Mobility shift assay (MSA) to determine potency of PTPN2 inhibitors; format: biochemical; conditions: 0.5 nM enzyme, 2 μM substrate
T2 construct: made in house
T2 sequence (P17706 with tags, fused parts or gaps isoform P17706-2): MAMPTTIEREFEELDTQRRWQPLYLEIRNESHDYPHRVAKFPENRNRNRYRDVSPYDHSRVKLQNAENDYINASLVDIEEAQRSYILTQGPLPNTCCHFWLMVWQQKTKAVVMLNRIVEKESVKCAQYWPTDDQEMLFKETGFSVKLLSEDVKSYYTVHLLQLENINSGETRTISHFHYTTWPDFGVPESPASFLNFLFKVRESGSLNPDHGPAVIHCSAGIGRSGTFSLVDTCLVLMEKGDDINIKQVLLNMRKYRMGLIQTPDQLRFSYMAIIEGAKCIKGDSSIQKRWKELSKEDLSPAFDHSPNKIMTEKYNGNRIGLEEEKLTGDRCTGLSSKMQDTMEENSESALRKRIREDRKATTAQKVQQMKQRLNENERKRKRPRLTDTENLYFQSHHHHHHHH
In short: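 His-tagged human PTPN2 (TC45), 0.5 nM, preincubated 10 min at room temperature with compound (12-point, 1:3 dilutions) in HEPES pH 7.5 buffer with EGTA, EDTA, Tween 20 and DTT. Then 2 μM OG488-labelled phospho-insulin-receptor peptide was added for 10 min and quenched. % conversion was read by mobility shift, and IC50 came from % inhibition.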

| Structure (SMILES) | IC50 [1] | IC50 [2] |
| --- | --- | --- |
| Cc1nn(C(C)(C)C)c(C)c1CCN1CCc2cc(O)c(N3CC(=O)NS3(=O)=O)c(F)c2C1 [Compound 266] | 1 to 10 nM | 1 to 10 nM |
| Cc1c(CNC(=O)N2CCc3cc(O)c(N4CC(=O)NS4(=O)=O)c(F)c3C2)cnn1C [Compound 271] | 10 to 100 nM | 10 to 100 nM |
| Cn1nccc1CNC(=O)N1CCc2cc(O)c(N3CC(=O)NS3(=O)=O)c(F)c2C1 [Compound 272] | 10 to 100 nM | 10 to 100 nM |
| Cc1nn(C(C)C)c(C)c1CCN1CCc2cc(O)c(N3CC(=O)NS3(=O)=O)c(F)c2C1 [Compound 273] | 1 to 10 nM | 1 to 10 nM |
| CCn1nc(C)c(CCN2CCc3cc(O)c(N4CC(=O)NS4(=O)=O)c(F)c3C2)c1C [Compound 276] | 1 to 10 nM | < 1 nM |
| CC(C)(C)CNC(=O)N1CCc2cc(O)c(N3CC(=O)NS3(=O)=O)c(F)c2C1 [Compound 277] | 10 to 100 nM | 1 to 10 nM |
| COCCCNC(=O)N1CCc2cc(O)c(N3CC(=O)NS3(=O)=O)c(F)c2C1 [Compound 278] | 10 to 100 nM | 10 to 100 nM |
| COCC(C)(C)CNC(=O)N1CCc2cc(O)c(N3CC(=O)NS3(=O)=O)c(F)c2C1 [Compound 279] | 10 to 100 nM | 10 to 100 nM |
| CN(C)CCNC(=O)N1CCc2cc(O)c(N3CC(=O)NS3(=O)=O)c(F)c2C1 [Compound 280] | > 100 nM | > 100 nM |
| CC1(CCNC(=O)N2CCc3cc(O)c(N4CC(=O)NS4(=O)=O)c(F)c3C2)CC1 [Compound 281] | 10 to 100 nM | 10 to 100 nM |
| COCCNC(=O)N1CCc2cc(O)c(N3CC(=O)NS3(=O)=O)c(F)c2C1 [Compound 282] | 10 to 100 nM | 10 to 100 nM |
| O=C1CN(c2c(O)cc3c(c2F)CN(C(=O)NCC2COC2)CC3)S(=O)(=O)N1 [Compound 283] | > 100 nM | 10 to 100 nM |
| O=C1CN(c2c(O)cc3c(c2F)CN(C(=O)NCCc2ccccc2)CC3)S(=O)(=O)N1 [Compound 284] | 10 to 100 nM | 10 to 100 nM |
| O=C1CN(c2c(O)cc3c(c2F)CN(CCCC2CCCCC2)CC3)S(=O)(=O)N1 [Compound 286] | 1 to 10 nM | 1 to 10 nM |
| C[C@H]1Cc2c(cc(O)c(N3CC(=O)NS3(=O)=O)c2F)CN1 [Compound 289] | > 100 nM | 10 to 100 nM |
| COCCCCN1CCc2cc(O)c(N3CC(=O)NS3(=O)=O)c(F)c2C1 [Compound 293] | 10 to 100 nM | 10 to 100 nM |
| O=C1CN(c2c(O)cc3c(c2F)CN(CCCc2cccc(C(F)(F)F)c2)CC3)S(=O)(=O)N1 [Compound 294] | 10 to 100 nM | 10 to 100 nM |
| CC1(C)COC(CCCCN2CCc3cc(O)c(N4CC(=O)NS4(=O)=O)c(F)c3C2)OC1 [Compound 296] | > 100 nM | 10 to 100 nM |
| CC1=C(CCN2CCc3cc(O)c(N4CC(=O)NS4(=O)=O)c(F)c3C2)C(C)(C)CCC1 [Compound 297] | 1 to 10 nM | < 1 nM |
| CCCCCN1CCc2cc(O)c(N3CC(=O)NS3(=O)=O)c(F)c2C1 [Compound 298] | 10 to 100 nM | 10 to 100 nM |
| O=C1CN(c2c(O)cc3c(c2F)CN(CCCc2ccc(F)cc2)CC3)S(=O)(=O)N1 [Compound 299] | 10 to 100 nM | 1 to 10 nM |

| Structure (SMILES) | IC50 [1] | IC50 [2] |
| --- | --- | --- |
| CC(C)(C)OC(=O)N[C@H]1CC[C@H](CCN2CCc3cc(O)c(N4CC(=O)NS4(=O)=O)c(F)c3C2)CC1 [Compound 300] | 1 to 10 nM | 1 to 10 nM |
| CC(C)(C)c1ccc(CCCN2CCc3cc(O)c(N4CC(=O)NS4(=O)=O)c(F)c3C2)cc1 [Compound 301] | > 100 nM | 10 to 100 nM |
| O=C1CN(c2c(O)cc3c(c2F)CN(CCCc2ccccc2F)CC3)S(=O)(=O)N1 [Compound 303] | 10 to 100 nM | 1 to 10 nM |
| Cc1noc(C)c1CCN1Cc2c(cc(O)c(N3CC(=O)NS3(=O)=O)c2F)C(F)(F)C1 [Compound 306] | > 100 nM | > 100 nM |
| Cc1n[nH]c(C)c1CCN1Cc2c(cc(O)c(N3CC(=O)NS3(=O)=O)c2F)C(F)(F)C1 [Compound 320] | > 100 nM | > 100 nM |
| O=C1CN(c2c(O)cc3c(c2F)CN(C(=O)NCC2CCCCC2)CC3)S(=O)(=O)N1 [Compound 321] | 1 to 10 nM | 1 to 10 nM |
| CC(=O)NC1CCc2cc(O)c(N3CC(=O)NS3(=O)=O)c(F)c2C1 (stereo not shown) [Compound 322] | 10 to 100 nM | 10 to 100 nM |
| O=C1CC[C@@H](CN2CCc3cc(O)c(N4CC(=O)NS4(=O)=O)c(F)c3C2)N1 [Compound 324] | 10 to 100 nM | 1 to 10 nM |
| CC(C)CCC[C@H]1Cc2c(cc(O)c(N3CC(=O)NS3(=O)=O)c2F)CN1 [Compound 325] | 1 to 10 nM | 1 to 10 nM |
| N[C@@H]1COc2cc(O)c(N3CC(=O)NS3(=O)=O)c(F)c2C1 [Compound 326, 5-[(3S)-3-amino-5-fluoro-7-hydroxy-3,4-dihydro-2H-1-benzopyran-6-yl]-1λ^6,2,5-thiadiazolidine-1,1,3-trione] | 10 to 100 nM | 10 to 100 nM |
| [2H]C1([2H])C(=O)NS(=O)(=O)N1c1c(O)cc2c(c1F)C[C@H](NCCC(C)C)CC2 [Compound 327, 5-{(7R)-1-fluoro-3-hydroxy-7-[(3-methylbutyl)amino]-5,6,7,8-tetrahydronaphthalen-2-yl}(4,4-^2H2)-1λ^6,2,5-thiadiazolidine-1,1,3-trione] | 1 to 10 nM | < 1 nM |
| CC(C)CNS(=O)(=O)N1CCc2cc(O)c(N3CC(=O)NS3(=O)=O)c(F)c2C1 [Compound 328, 8-fluoro-6-hydroxy-N-(2-methylpropyl)-7-(1,1,4-trioxo-1λ^6,2,5-thiadiazolidin-2-yl)-3,4-dihydroisoquinoline-2(1H)-sulfonamide] | 10 to 100 nM | 10 to 100 nM |
| CC(C)CNC(=N)N1CCc2cc(O)c(N3CC(=O)NS3(=O)=O)c(F)c2C1 [Compound 329, 8-fluoro-6-hydroxy-N-(2-methylpropyl)-7-(1,1,4-trioxo-1λ^6,2,5-thiadiazolidin-2-yl)-3,4-dihydroisoquinoline-2(1H)-carboximidamide] | 10 to 100 nM | 10 to 100 nM |
| O=C1CN(c2c(O)cc3c(c2F)CC(NCCC2COC2)CC3)S(=O)(=O)N1 (stereo not shown) [Compound 330, 5-(1-fluoro-3-hydroxy-7-{[2-(oxetan-3-yl)ethyl]amino}-5,6,7,8-tetrahydronaphthalen-2-yl)-1λ^6,2,5-thiadiazolidine-1,1,3-trione] | > 100 nM | > 100 nM |
| CC(C)CCN[C@@H]1CCc2c(F)c(O)c(N3CC(=O)NS3(=O)=O)c(F)c2C1 [Compound 331, 5-{(7R)-1,4-difluoro-3-hydroxy-7-[(3-methylbutyl)amino]-5,6,7,8-tetrahydronaphthalen-2-yl}-1λ^6,2,5-thiadiazolidine-1,1,3-trione] | 1 to 10 nM | 1 to 10 nM |
| CC(C)CCS(=O)(=O)NC1CCc2cc(O)c(N3CC(=O)NS3(=O)=O)c(F)c2C1 (stereo not shown) [Compound 332, N-[8-fluoro-6-hydroxy-7-(1,1,4-trioxo-1λ^6,2,5-thiadiazolidin-2-yl)-1,2,3,4-tetrahydronaphthalen-2-yl]-3-methylbutane-1-sulfonamide] | 10 to 100 nM | 10 to 100 nM |
| CC(C)CNCC1CCc2cc(O)c(N3CC(=O)NS3(=O)=O)c(F)c2C1 (stereo not shown) [Compound 333, 5-(1-fluoro-3-hydroxy-7-{[(2-methylpropyl)amino]methyl}-5,6,7,8-tetrahydronaphthalen-2-yl)-1λ^6,2,5-thiadiazolidine-1,1,3-trione] | 10 to 100 nM | 10 to 100 nM |
| CC(C)C(F)CNC1CCc2cc(O)c(N3CC(=O)NS3(=O)=O)c(F)c2C1 (stereo not shown) [Compound 334, 5-{1-fluoro-7-[(2-fluoro-3-methylbutyl)amino]-3-hydroxy-5,6,7,8-tetrahydronaphthalen-2-yl}-1λ^6,2,5-thiadiazolidine-1,1,3-trione] | 1 to 10 nM | 1 to 10 nM |
| O=C1CN(c2c(O)cc3c(c2F)CC(O)CC3)S(=O)(=O)N1 (stereo not shown) [Compound 335, 5-(1-fluoro-3,7-dihydroxy-5,6,7,8-tetrahydronaphthalen-2-yl)-1λ^6,2,5-thiadiazolidine-1,1,3-trione] | 10 to 100 nM | 10 to 100 nM |
| [2H]C([2H])([2H])C([2H])([2H])C([2H])([2H])C([2H])([2H])NC1CCc2cc(O)c(N3CC(=O)NS3(=O)=O)c(F)c2C1 (stereo not shown) [Compound 336, 5-{7-[(^2H9)butylamino]-1-fluoro-3-hydroxy-5,6,7,8-tetrahydronaphthalen-2-yl}-1λ^6,2,5-thiadiazolidine-1,1,3-trione] | 1 to 10 nM | 1 to 10 nM |
